Assay results as given in the supplement of paper PMC10307832.

Legend:
Assay in all cases: relative viability (nuclei count vs DMSO), 5 days (fraction); higher = more cells survive
NCI-H1395 = test system: NCI-H1395
Method in brief: (§1)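 One day after seeding in 1536-well plates, lung cancer cell lines were dosed by pin tool. Dosing was either single-drug or a fixed anchor-drug dose plus five library-drug doses (not always all listed) in √10 steps. After 5 days, nuclei were stained in one fix-and-stain step and counted on 4× images, and relative viability is the nuclei count of treated wells over that of vehicle wells, given as the median of duplicate plates.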

NCI-H1651 = test system: NCI-H1651
Method in brief: as §1

NCI-H3122 = test system: NCI-H3122
Method in brief: as §1

NCI-H2228 = test system: NCI-H2228
Method in brief: as §1

NCI-H2087 = test system: NCI-H2087
Method in brief: as §1

PC-3 [JPC-3] = test system: PC-3 [JPC-3]
Method in brief: as §1

LU99A = test system: LU99A
Method in brief: as §1

HCC-366 = test system: HCC-366
Method in brief: as §1

CAL-12T = test system: CAL-12T
Method in brief: as §1

RERF-LC-KJ = test system: RERF-LC-KJ
Method in brief: as §1

NCI-H460 = test system: NCI-H460
Method in brief: as §1

NCI-H1755 = test system: NCI-H1755
Method in brief: as §1

NCI-H1944 = test system: NCI-H1944
Method in brief: as §1

ChaGo-K-1 = test system: ChaGo-K-1
Method in brief: as §1

NCI-H2170 = test system: NCI-H2170
Method in brief: as §1

NCI-H2405 = test system: NCI-H2405
Method in brief: as §1

LC-2-ad = test system: LC-2-ad
Method in brief: as §1

NCI-H1793 = test system: NCI-H1793
Method in brief: as §1

HCC-78 = test system: HCC-78
Method in brief: as §1

UMC-11 = test system: UMC-11
Method in brief: as §1

LOU-NH91 = test system: LOU-NH91
Method in brief: as §1

Compound `CCN(CC)CCCCNc1ncc2cc(-c3cc(OC)cc(OC)c3)c(NC(=O)NC(C)(C)C)nc2n1` + CC1(C)CCC(c2ccc(Cl)cc2)=C(CN2CCN(c3ccc(C(=O)NS(=O)(=O)c4ccc(N[C@H](CCN5CCOCC5)CSc5ccccc5)c(S(=O)(=O)C(F)(F)F)c4)cc3)CC2)C1 [Navitoclax] (partner 0.5 µM) has a relative viability (NCI-H1395; first compound 0.03162 µM) of 1.1, a relative viability (NCI-H1395; first compound 0.1 µM) of 1.09 and a relative viability (NCI-H1395; first compound 0.3162 µM) of 1.17. It also gave a relative viability (NCI-H1395; first compound 1 µM) of 0.751, a relative viability (NCI-H1651; first compound 0.01 µM) of 0.983 and a relative viability (NCI-H1651; first compound 0.03162 µM) of 1.09. For the same compound, the relative viability (NCI-H1651; first compound 0.1 µM) was 1.25, the relative viability (NCI-H1651; first compound 0.3162 µM) was 1.23 and the relative viability (NCI-H1651; first compound 1 µM) was 1.03. For the same compound, the relative viability (NCI-H3122; first compound 0.01 µM) was 1.02, the relative viability (NCI-H3122; first compound 0.03162 µM) was 1.06 and the relative viability (NCI-H3122; first compound 0.1 µM) was 1.06. The relative viability (NCI-H3122; first compound 0.3162 µM) was 1.03, the relative viability (NCI-H3122; first compound 1 µM) was 1.07 and the relative viability (NCI-H2228; first compound 0.01 µM) was 0.841. It also gave a relative viability (NCI-H2228; first compound 0.03162 µM) of 0.866, a relative viability (NCI-H2228; first compound 0.1 µM) of 0.979 and a relative viability (NCI-H2228; first compound 0.3162 µM) of 0.884. The relative viability (NCI-H2228; first compound 1 µM) was 0.541, the relative viability (NCI-H2087; first compound 0.01 µM) was 1.15 and the relative viability (NCI-H2087; first compound 0.03162 µM) was 1.12. The relative viability (NCI-H2087; first compound 0.1 µM) was 1.35, the relative viability (NCI-H2087; first compound 0.3162 µM) was 1.23 and the relative viability (NCI-H2087; first compound 1 µM) was 0.986. For the same compound, the relative viability (PC-3 [JPC-3]; first compound 0.01 µM) was 0.827, the relative viability (PC-3 [JPC-3]; first compound 0.03162 µM) was 0.785 and the relative viability (PC-3 [JPC-3]; first compound 0.1 µM) was 0.855. It also gave a relative viability (PC-3 [JPC-3]; first compound 0.3162 µM) of 0.951, a relative viability (PC-3 [JPC-3]; first compound 1 µM) of 1.02 and a relative viability (LU99A; first compound 0.01 µM) of 0.716. For the same compound, the relative viability (LU99A; first compound 0.03162 µM) was 0.862, the relative viability (LU99A; first compound 0.1 µM) was 0.949 and the relative viability (LU99A; first compound 0.3162 µM) was 0.85. The relative viability (LU99A; first compound 1 µM) was 0.69, the relative viability (HCC-366; first compound 0.01 µM) was 1.16 and the relative viability (HCC-366; first compound 0.03162 µM) was 1.09. The relative viability (HCC-366; first compound 0.1 µM) was 1.2, the relative viability (HCC-366; first compound 0.3162 µM) was 1.27 and the relative viability (HCC-366; first compound 1 µM) was 1.2. For the same compound, the relative viability (CAL-12T; first compound 0.01 µM) was 1.43, the relative viability (CAL-12T; first compound 0.03162 µM) was 1.12 and the relative viability (CAL-12T; first compound 0.1 µM) was 1.22. It also gave a relative viability (CAL-12T; first compound 0.3162 µM) of 1.42, a relative viability (CAL-12T; first compound 1 µM) of 1.19 and a relative viability (RERF-LC-KJ; first compound 0.01 µM) of 0.996. It also gave a relative viability (RERF-LC-KJ; first compound 0.03162 µM) of 0.851, a relative viability (RERF-LC-KJ; first compound 0.1 µM) of 0.925 and a relative viability (RERF-LC-KJ; first compound 0.3162 µM) of 1.09. The relative viability (RERF-LC-KJ; first compound 1 µM) was 0.997, the relative viability (NCI-H460; first compound 0.01 µM) was 1.3 and the relative viability (NCI-H460; first compound 0.03162 µM) was 1.18. The relative viability (NCI-H460; first compound 0.3162 µM) was 1.21, the relative viability (NCI-H460; first compound 1 µM) was 1.09 and the relative viability (NCI-H1755; first compound 0.01 µM) was 1.14. It also gave a relative viability (NCI-H1755; first compound 0.03162 µM) of 1.08, a relative viability (NCI-H1755; first compound 0.1 µM) of 1.07 and a relative viability (NCI-H1755; first compound 0.3162 µM) of 1.09. The relative viability (NCI-H1755; first compound 1 µM) was 0.987, the relative viability (NCI-H1944; first compound 0.01 µM) was 1.18 and the relative viability (NCI-H1944; first compound 0.03162 µM) was 1.02. It also gave a relative viability (NCI-H1944; first compound 0.1 µM) of 1.08, a relative viability (NCI-H1944; first compound 0.3162 µM) of 1.09 and a relative viability (NCI-H1944; first compound 1 µM) of 1.02. The relative viability (ChaGo-K-1; first compound 0.01 µM) was 0.844, the relative viability (ChaGo-K-1; first compound 0.03162 µM) was 0.893 and the relative viability (ChaGo-K-1; first compound 0.1 µM) was 1.49. It also gave a relative viability (ChaGo-K-1; first compound 0.3162 µM) of 1.16, a relative viability (ChaGo-K-1; first compound 1 µM) of 0.716 and a relative viability (NCI-H2170; first compound 0.01 µM) of 0.586. For the same compound, the relative viability (NCI-H2170; first compound 0.03162 µM) was 0.75, the relative viability (NCI-H2170; first compound 0.1 µM) was 0.558 and the relative viability (NCI-H2170; first compound 0.3162 µM) was 0.641. For the same compound, the relative viability (NCI-H2170; first compound 1 µM) was 0.528, the relative viability (NCI-H2405; first compound 0.01 µM) was 0.707 and the relative viability (NCI-H2405; first compound 0.03162 µM) was 0.772. The relative viability (NCI-H2405; first compound 0.1 µM) was 0.853, the relative viability (NCI-H2405; first compound 0.3162 µM) was 0.901 and the relative viability (NCI-H2405; first compound 1 µM) was 0.789. The relative viability (LC-2-ad; first compound 0.01 µM) was 0.425, the relative viability (LC-2-ad; first compound 0.03162 µM) was 0.372 and the relative viability (LC-2-ad; first compound 0.1 µM) was 0.558. For the same compound, the relative viability (LC-2-ad; first compound 0.3162 µM) was 0.511, the relative viability (LC-2-ad; first compound 1 µM) was 0.487 and the relative viability (NCI-H1793; first compound 0.01 µM) was 0.988. It also gave a relative viability (NCI-H1793; first compound 0.1 µM) of 0.326, a relative viability (NCI-H1793; first compound 0.3162 µM) of 0.439 and a relative viability (NCI-H1793; first compound 1 µM) of 0.326. It also gave a relative viability (HCC-78; first compound 0.03162 µM) of 0.75, a relative viability (HCC-78; first compound 0.1 µM) of 0.618 and a relative viability (HCC-78; first compound 0.3162 µM) of 0.809. It also gave a relative viability (HCC-78; first compound 1 µM) of 0.64, a relative viability (UMC-11; first compound 0.01 µM) of 0.303 and a relative viability (UMC-11; first compound 0.03162 µM) of 0.293. The relative viability (UMC-11; first compound 0.1 µM) was 0.318, the relative viability (UMC-11; first compound 0.3162 µM) was 0.318 and the relative viability (UMC-11; first compound 1 µM) was 0.308. It also gave a relative viability (LOU-NH91; first compound 0.01 µM) of 0.611, a relative viability (LOU-NH91; first compound 0.03162 µM) of 0.674 and a relative viability (LOU-NH91; first compound 0.1 µM) of 0.718. It also gave a relative viability (LOU-NH91; first compound 0.3162 µM) of 0.795 and a relative viability (LOU-NH91; first compound 1 µM) of 0.722.
